From ChEMBL document CHEMBL3877319, “Synthesis of Ofornine mimics from natural product l-vasicine as anti-hypertensive agents” (Bioorg Med Chem, 2017) come the findings set out here.

Each structure is given as a SMILES string.

What all share (type): functional
For assay [1], the system named is Rattus norvegicus. In words: Anti-hypertensive activity in Wistar rat assessed as diastolic blood pressure at 10 mg/kg, iv after 30 mins (reference value: 77.15 to 94.4 mmHg).
Assay [2] deals with Rattus norvegicus. In words: Anti-hypertensive activity in Wistar rat assessed as diastolic blood pressure at 10 mg/kg, iv after 60 mins (reference value: 77.15 to 94.4 mmHg).
Assay [3] relates to Rattus norvegicus. In words: Anti-hypertensive activity in Wistar rat assessed as systolic blood pressure at 10 mg/kg, iv after 30 mins (reference value: 110 to 124.6 mmHg).
For assay [4], the system named is Rattus norvegicus. In words: Anti-hypertensive activity in Wistar rat assessed as diastolic blood pressure at 10 mg/kg, iv after 5 mins (reference value: 77.15 to 94.4 mmHg).
Assay [5] has as its system Rattus norvegicus. In words: Anti-hypertensive activity in Wistar rat assessed as systolic blood pressure at 10 mg/kg, iv after 150 mins (reference value: 110 to 124.6 mmHg).
Assay [6] has as its system Rattus norvegicus. In words: Anti-hypertensive activity in Wistar rat assessed as systolic blood pressure at 10 mg/kg, iv after 15 mins (reference value: 110 to 124.6 mmHg).
The test system of assay [7] is Rattus norvegicus. In words: Anti-hypertensive activity in Wistar rat assessed as diastolic blood pressure at 10 mg/kg, iv after 180 mins (reference value: 77.15 to 94.4 mmHg).
The subject of assay [8] is Rattus norvegicus. In words: Anti-hypertensive activity in Wistar rat assessed as diastolic blood pressure at 10 mg/kg, iv after 15 mins (reference value: 77.15 to 94.4 mmHg).
Assay [9] has as its system Rattus norvegicus. In words: Anti-hypertensive activity in Wistar rat assessed as systolic blood pressure at 10 mg/kg, iv after 60 mins (reference value: 110 to 124.6 mmHg).
Assay [10] relates to Rattus norvegicus. In words: Anti-hypertensive activity in Wistar rat assessed as systolic blood pressure at 10 mg/kg, iv after 180 mins (reference value: 110 to 124.6 mmHg).
Assay [11] deals with Rattus norvegicus. In words: Anti-hypertensive activity in Wistar rat assessed as systolic blood pressure at 10 mg/kg, iv after 120 mins (reference value: 110 to 124.6 mmHg).
Assay [12] concerns Rattus norvegicus. In words: Anti-hypertensive activity in Wistar rat assessed as diastolic blood pressure at 10 mg/kg, iv after 120 mins (reference value: 77.15 to 94.4 mmHg).
Assay [13] has as its system Rattus norvegicus. In words: Anti-hypertensive activity in Wistar rat assessed as diastolic blood pressure at 10 mg/kg, iv after 150 mins (reference value: 77.15 to 94.4 mmHg).
For assay [14], the system named is Rattus norvegicus. In words: Anti-hypertensive activity in Wistar rat assessed as systolic blood pressure at 10 mg/kg, iv after 5 mins (reference value: 110 to 124.6 mmHg).

For `Nc1ccccc1C(=O)N1CCC(O)C1` (single isomer, unassigned), the Activity in assay [1] is reported as 82.62 mmHg; in assay [2], 82.62 mmHg; in [3], 124.3 mmHg; in assay [4], 80.42 mmHg; in [5] it was 121.4 mmHg; in assay [6], 123.4 mmHg. Further, the Activity in assay [7] stood at 86.45 mmHg; in assay [8], 86.88 mmHg; in assay [9], 119.5 mmHg; in [10], 123.1 mmHg; in assay [11] it was 118.8 mmHg; in [12] it was 79.57 mmHg. Besides, the Activity in assay [13] was determined as 79.95 mmHg; in assay [14] it was 107.8 mmHg.
Turning to `O[C@@H]1CCN(Cc2ccccc2)C1`, the Activity in [1] was 70.89 mmHg; in assay [2], 77.25 mmHg; in [3], 119.3 mmHg; in [4] it was 52.65 mmHg; in [5] it was 114.6 mmHg; in [6] it was 116.4 mmHg. The Activity stood at 83.15 mmHg in assay [7]; 57.86 mmHg in [8]; 121.4 mmHg in assay [9]; 118.9 mmHg in [10]; 112.3 mmHg in [11]; 74.19 mmHg in [12]. The Activity was determined as 78.62 mmHg in assay [13] and 107.9 mmHg in assay [14].
For the molecule `O=C(c1ccccc1Nc1ccncc1)N1CC[C@@H](n2cc(-c3ccccc3)nn2)C1`, the Activity in [1] is on record as 70.2 mmHg; in assay [2] it was 72.2 mmHg; in assay [3], 100.7 mmHg; in [4] it was 58.7 mmHg; in assay [5], 120.8 mmHg; in assay [6], 94.3 mmHg. Besides, the Activity in assay [7] is reported as 86.75 mmHg; in assay [8], 65.5 mmHg; in [9] it was 109.8 mmHg; in assay [10], 121.2 mmHg; in assay [11], 116.2 mmHg; in assay [12], 80 mmHg. In addition, the Activity in assay [13] was 80.15 mmHg; in assay [14], 85.3 mmHg.
As to `O=C(c1ccccc1-n1cc(-c2ccc(F)cc2)nn1)N1CC[C@@H](O)C1`, the Activity in assay [1] was 77.9 mmHg; in assay [2], 95 mmHg; in [3] it was 118.9 mmHg; in [4] it was 76.5 mmHg; in assay [5] it was 121.8 mmHg; in assay [6], 120.1 mmHg. For the same molecule, the Activity in assay [7] is given as 90.8 mmHg; in assay [8], 74.8 mmHg; in assay [9], 122.4 mmHg; in assay [10] it was 121.5 mmHg; in assay [11], 121.6 mmHg; in [12] it was 88 mmHg. Besides, the Activity in assay [13] came out at 88.8 mmHg; in assay [14], 103.3 mmHg.
As for `O=C(c1ccccc1Nc1ccncc1)N1CC[C@@H](n2cc(C3CC3)nn2)C1`, the Activity is recorded as 76.29 mmHg in assay [1]; 73.85 mmHg in assay [2]; 112.2 mmHg in [3]; 77.08 mmHg in assay [4]; 110.4 mmHg in assay [5]; 115.1 mmHg in assay [6]. Also, the Activity is reported as 86.32 mmHg in [7]; 79.63 mmHg in [8]; 108.2 mmHg in assay [9]; 117.2 mmHg in assay [10]; 111.6 mmHg in assay [11]; 86.96 mmHg in assay [12]. For the same molecule, the values for the Activity in assay [13] and in assay [14] were 85.74 mmHg and 116.4 mmHg, respectively.
For the molecule `O=C(c1ccccc1-n1cc(-c2ccc(-c3ccccc3)cc2)nn1)N1CC[C@@H](O)C1`, the Activity came to 79.1 mmHg in assay [1]; 86.8 mmHg in assay [2]; 106.9 mmHg in assay [3]; 82 mmHg in [4]; 116.3 mmHg in assay [5]; 113 mmHg in assay [6]. Further, the Activity was found to be 78.3 mmHg in assay [7]; 82 mmHg in [8]; 110.1 mmHg in assay [9]; 109.6 mmHg in [10]; 107.3 mmHg in [11]; 87.8 mmHg in [12]. The results for the Activity in [13] and in assay [14] were 81.3 mmHg and 112 mmHg, respectively.
Regarding `O=C(c1ccccc1Nc1ccncc1)N1CC[C@@H](n2cc(-c3ccc(F)cc3)nn2)C1`, the Activity in [1] is given as 84.63 mmHg; in [2], 84.8 mmHg; in assay [3] it was 108.6 mmHg; in assay [4], 42.9 mmHg; in [5], 124.6 mmHg; in [6] it was 106.2 mmHg. For the same molecule, the Activity in assay [7] worked out at 90.58 mmHg; in [8] it was 73.8 mmHg; in assay [9], 117.6 mmHg; in [10], 128.9 mmHg; in assay [11], 122.6 mmHg; in [12], 86.3 mmHg. For the same molecule, the Activity in assay [13] was determined as 90.3 mmHg; in [14], 46.6 mmHg.
Take `CCCCCc1cn([C@@H]2CCN(C(=O)c3ccccc3Nc3ccncc3)C2)nn1`: the Activity in assay [1] is reported as 77.6 mmHg; in assay [2], 80.2 mmHg; in [3], 103.8 mmHg; in assay [4], 73.2 mmHg; in assay [5] it was 114.9 mmHg; in [6], 101.7 mmHg. For the same molecule, the Activity in [7] was 85.4 mmHg; in [8], 80.5 mmHg; in assay [9], 105.4 mmHg; in assay [10], 117.6 mmHg; in assay [11], 109.8 mmHg; in [12] it was 80.5 mmHg. Moreover, the Activity is given as 81.9 mmHg in assay [13] and 96.7 mmHg in assay [14].
For the molecule `O=C(c1ccccc1Nc1ccncc1)N1CCCCC1` [OFORNINE], the Activity in assay [1] turned out to be 62.8 mmHg; in assay [2], 64.05 mmHg; in assay [3], 89.5 mmHg; in assay [4], 53.3 mmHg; in assay [5] it was 113.8 mmHg; in assay [6], 89.45 mmHg. Moreover, the Activity was 90.8 mmHg in [7]; 61 mmHg in assay [8]; 88.6 mmHg in assay [9]; 117 mmHg in [10]; 90.5 mmHg in assay [11]; 64.5 mmHg in [12]. Moreover, the results for the Activity in [13] and in assay [14] were 77.9 mmHg and 83.3 mmHg, respectively.
In the case of `CCCCCCc1ccc(-c2cn([C@@H]3CCN(C(=O)c4ccccc4Nc4ccncc4)C3)nn2)cc1`, the Activity amounted to 83.6 mmHg in assay [1]; 83.25 mmHg in assay [2]; 111.6 mmHg in [3]; 74.8 mmHg in [4]; 118.7 mmHg in [5]; 104.9 mmHg in assay [6]. Besides, the Activity in assay [7] came out at 91 mmHg; in assay [8], 81.7 mmHg; in assay [9], 111.9 mmHg; in assay [10] it was 119.9 mmHg; in [11] it was 118.9 mmHg; in [12], 91.75 mmHg. For the same molecule, the Activity in assay [13] worked out at 92.8 mmHg; in assay [14] it was 94.4 mmHg.
Take `O[C@H]1CCN(Cc2ccccc2Nc2ccncc2)C1`: the Activity in [1] turned out to be 75.5 mmHg; in assay [2], 81.18 mmHg; in assay [3] it was 120.6 mmHg; in assay [4] it was 77.06 mmHg; in assay [5], 122.9 mmHg; in assay [6], 119.9 mmHg. The Activity in [7] is 83.32 mmHg; in [8], 73.74 mmHg; in [9], 115.7 mmHg; in assay [10], 124.4 mmHg; in [11] it was 118.2 mmHg; in assay [12], 75.97 mmHg. In addition, the values for the Activity in [13] and in [14] were 76.6 mmHg and 120.4 mmHg, respectively.
